# Data reported in US8258138B2, “Potassium channel blockers” (Xention Limited, priority 2008, dated 2012).
# Key:
# hKv1.5 = hKv1.5 (Homo sapiens, UniProt P22460); assay: Kv1.5 Autopatch electrophysiology (whole cell patch-clamp); type: cell-based; details: compound at 1 μM; room temperature (22-24° C.); total charge during step to 0 mV; read-out: hKv1.5 % inh.
# Description: Kv1.5 Autopatch Electrophysiology Method
# The external bathing solution contained (in mM): 150 NaCl, 10 KCl, […], 3 MgCl2, 1 CaCl2, 10 HEPES, pH 7.4. Patch pipettes were filled with an electrode solution of composition (in mM): 160 KCl, 0.5 MgCl2, 10 HEPES, 1 EGTA, pH 7.4 with KOH.
# Compounds were dissolved in DMSO (100%) and made up in the external bather at a concentration of 1 μM. All experiments were conducted at room temperature (22-24° C.).
# A cell suspension (10 ml), with a density of 100,000 cells/ml, was aliquoted into a 15 ml centrifuge tube and transferred to an incubator (37° C., 5% CO2) for approximately one hour before use. Following 60 min incubation, a tube was taken and centrifuged at 1000 rpm for 4 mins at room temperature. 9.5 ml supernatant was thence discarded, leaving a cell pellet at the bottom of the tube. The pellet was then resuspended using 100 μl of cold (4° C.), filtered (0.22 μm), 0.2% BSA/bather solution (0.02 g BSA/10 ml bather). The bottom of the tube was manually agitated gently until the solution became cloudy with cells. The 100 μl cell resuspension solution was then stored on the bench at 4° C. (using a Peltier-based temperature control device) until used.
# A length of capillary glass (1B150F-4, WPI) was dipped into the cell suspension solution, such that ˜3 cm column of fluid was taken up by capillary action. A Ag/AgCl wire was dropped into the non-dipped end of the capillary also. The outside of the solution-filled end of the capillary was then dried and the capillary was loaded into the AutoPatch™.
# Borosilicate glass patch pipettes (from 1.5 mm OD, thin-walled filamented, GC150-TF capillary glass, Harvard) were pulled using a DMZ pipette puller (Zeitz Instruments), and were back-filled using the internal pipette solution, being careful that no bubbles remain at the tip or in the body of the pipette. Patch pipettes typically had resistances of 2.3-3.5 MΩ. Once filled, the pipette tip and a proportion of the shaft (˜15 mm) were dipped into Sigmacote (Sigma). The recording pipette was then loaded into the AutoPatch™ Automated patch-clamping was initiated by the operator, but thereafter AutoPatch.exe continued the experiment providing that pre-set conditions and criteria were satisfied.
# Whole cell patch-clamp recordings were made using the AutoPatch™ rig, which incorporated an EPC9 amplifier (HEKA, Germany) under control of Pulse software (v8.54, HEKA, Germany), a motion controller with 2 translators (Newport, UK), valve controller (VF1) and a c-level suction device all at room temperature (22-24° C.). This equipment was completely under the control of AutoPatch.exe and operator intervention was only made when there was a requirement to refill the drug reservoirs or to prevent the loss of a cell due to a technical error. Cells with an Rseries greater than 18 MΩ were discounted from the experiment.
# Qualification stages prior to perfusion and drug application ensured that the observed current met the criteria for the experiment. Only those cells with an IK>500 pA were used for experiments. Cells were continuously perfused with external solution at a flow rate of 1.8-2 ml/minute. […] Online analysis of the hKv1.5 current during the application of compounds was performed by the AutoPatch™ software. Voltage-step protocols and analysis of data was performed as described for conventional electrophysiology.
# Electrophysiology voltage-step protocols and analysis of data was performed as follows. Data was sampled at 5 kHz, and filtered with a −3 dB bandwidth of 2.5 kHz. Cells were held at a voltage of −80 mV. Currents were evoked to a voltage step for 1000 ms in duration at 0 mV every 5 s. Currents were analysed using Pulsefit software (v8.54, HEKA, Germany), with the total charge measured during the whole of the voltage step. All other plots were produced using Igor Pro (WaveMetrics).
# human Kv1.3 = target: T1, human Kv1.3 (Homo sapiens, UniProt P22001); assay: Kv1.3 Autopatch electrophysiology (whole cell patch-clamp, inhibition of charge movement); type: cell-based; details: compound at 1 μM; cells stably transfected with human Kv1.3; room temperature; total charge during step to +30 mV relative to control; read-out: hKv1.3 % inh.
# T1 construct: expressed in transfected cells; host or cells: stably transfected cells grown in medium for CHO cells
# Outline: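 Whole-cell AutoPatch recordings were made at room temperature from cells held at −80 mV, with 500 ms steps to +30 mV every 15 s. The bath contained 10 mM KCl, pH 7.4, and the pipette K-gluconate/EGTA, pH 7.2.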
# T1 sequence (P22001 whole entry): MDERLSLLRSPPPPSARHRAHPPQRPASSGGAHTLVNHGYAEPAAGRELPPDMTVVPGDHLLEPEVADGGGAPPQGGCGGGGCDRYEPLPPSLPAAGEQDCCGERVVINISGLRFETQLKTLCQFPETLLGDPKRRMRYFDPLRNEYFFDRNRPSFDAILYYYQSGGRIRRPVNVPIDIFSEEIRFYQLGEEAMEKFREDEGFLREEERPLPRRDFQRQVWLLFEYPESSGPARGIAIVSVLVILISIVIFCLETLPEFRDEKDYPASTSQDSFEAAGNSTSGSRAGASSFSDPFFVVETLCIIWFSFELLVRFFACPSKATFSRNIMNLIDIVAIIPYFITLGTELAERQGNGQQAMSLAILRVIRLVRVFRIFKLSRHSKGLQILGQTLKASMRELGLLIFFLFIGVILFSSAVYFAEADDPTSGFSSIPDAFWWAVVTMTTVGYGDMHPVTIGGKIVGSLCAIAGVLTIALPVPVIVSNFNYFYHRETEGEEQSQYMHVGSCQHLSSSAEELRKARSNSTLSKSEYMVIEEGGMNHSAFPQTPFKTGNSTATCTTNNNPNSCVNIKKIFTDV
# Chain of hKv1.5 (P22460 whole entry): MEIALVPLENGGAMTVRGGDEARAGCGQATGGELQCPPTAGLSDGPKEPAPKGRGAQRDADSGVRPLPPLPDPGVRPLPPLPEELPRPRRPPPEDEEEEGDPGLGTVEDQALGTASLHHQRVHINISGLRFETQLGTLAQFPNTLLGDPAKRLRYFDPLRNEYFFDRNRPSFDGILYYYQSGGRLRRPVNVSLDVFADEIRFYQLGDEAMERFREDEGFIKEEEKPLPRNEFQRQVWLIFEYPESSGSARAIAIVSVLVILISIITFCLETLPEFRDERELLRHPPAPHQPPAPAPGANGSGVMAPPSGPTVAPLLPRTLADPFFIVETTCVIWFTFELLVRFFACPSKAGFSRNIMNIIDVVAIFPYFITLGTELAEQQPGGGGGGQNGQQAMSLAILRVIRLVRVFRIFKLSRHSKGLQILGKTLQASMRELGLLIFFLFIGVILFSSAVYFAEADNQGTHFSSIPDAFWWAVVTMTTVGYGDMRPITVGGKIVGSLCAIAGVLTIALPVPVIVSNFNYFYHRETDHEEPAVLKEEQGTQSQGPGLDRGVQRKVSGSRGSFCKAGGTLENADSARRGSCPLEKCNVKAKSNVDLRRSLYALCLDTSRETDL
inhibition at 1 µM (hKv1.5),inhibition at 1 µM (human Kv1.3),SMILES
47.9%,86%,"O=C(c1ccc(N(Cc2ccccc2Cl)S(=O)(=O)c2ccccc2)cc1)N1CCN(c2ccccc2)CC1 [Example 10, N-(2-Chloro-benzyl)-N-[4-(4-phenyl-piperazine-1-carbonyl)-phenyl]-benzenesulfonamide]"
48.1%,77%,"Cc1ccc(S(=O)(=O)N(Cc2ccccc2)c2ccc(C(=O)N3CCN(c4ccccc4)CC3)cc2)cc1 [Example 16, N-Benzyl-4-methyl-N-[4-(4-phenyl-piperazine-1-carbonyl)-phenyl]-benzenesulfonamide]"
44.2%,68%,"COc1ccccc1CN(c1ccc(C(=O)N2CCN(c3ccccc3)CC2)cc1)S(=O)(=O)c1ccccc1 [Example 32, N-(2-Methoxy-benzyl)-N-[4-(4-phenyl-piperazine-1-carbonyl)-phenyl]-benzenesulfonamide]"
56.3%,93%,"O=C(c1ccc(N(Cc2ccc(F)cc2)S(=O)(=O)c2ccccc2)cc1)N1CCN(c2ccccc2)CC1 [Example 12, N-(4-Fluoro-benzyl)-N-[4-(4-phenyl-piperazine-1-carbonyl)-phenyl]-benzenesulfonamide]"
64.5%,99%,"O=C(c1ccc(N(Cc2ccccc2)S(=O)(=O)c2ccccc2)cc1)N1CCN(c2ccccc2)CC1 [Example 9, N-Benzyl-N-[4-(4-phenyl-piperazine-1-carbonyl)-phenyl]-benzenesulfonamide]"
47%,94%,"Cn1nccc1S(=O)(=O)N(Cc1ccccc1)c1ccc(C(=O)N2CCOC(c3ccccc3)C2)cc1 (stereo not shown) [Example 85, 2-Methyl-2H-pyrazole-3-sulfonic acid benzyl-[4-(2-phenyl-morpholine-4-carbonyl)-phenyl]-amide]"
85.6%,92%,"O=C(c1ccc(N(Cc2ccccc2)S(=O)(=O)c2cccc(Cl)c2)cc1)N1CCN(c2ccccc2)CC1 [Example 30, N-Benzyl-3-chloro-N-[4-(4-phenyl-piperazine-1-carbonyl)-phenyl]-benzenesulfonamide]"
94%,91%,"O=C(c1ccc(N(Cc2ccc(Cl)cc2)S(=O)(=O)c2ccccc2)cc1)N1CCN(c2ccccc2)CC1 [Example 1, N-(4-Chloro-benzyl)-N-[4-(4-phenyl-piperazine-1-carbonyl)-phenyl]-benzenesulfonamide]"
62.9%,66%,"Cc1nn(C)cc1S(=O)(=O)N(Cc1ccccc1)c1ccc(C(=O)N2CCN(c3ccccc3)CC2)cc1 [Example 46, 1,3-Dimethyl-1H-pyrazole-4-sulfonic acid benzyl-[4-(4-phenyl-piperazine-1-carbonyl)-phenyl]-amide]"
58.9%,47%,"CC1(C)CCc2cc(S(=O)(=O)N(Cc3ccccc3)c3ccc(C(=O)N4CCN(c5ccccc5)CC4)cc3)ccc2O1 [Example 39, 2,2-Dimethyl-chroman-6-sulfonic acid benzyl-[4-(4-phenyl-piperazine-1-carbonyl)-phenyl]-amide]"
40.1%,87%,"O=C(c1ccc(N(Cc2ccccc2)S(=O)(=O)c2ccccc2)cc1)N1CCC(O)(Cc2ccccc2)CC1 [Example 59, N-Benzyl-N-[4-(4-benzyl-4-hydroxy-piperidine-1-carbonyl)-phenyl]-benzenesulfonamide]"
52.4%,64%,"Cn1cnc(S(=O)(=O)N(Cc2ccc(Cl)cc2)c2ccc(C(=O)N3CCCC(Oc4ccccc4)C3)cc2)c1 (stereo not shown) [Example 62, 1-Methyl-1H-imidazole-4-sulfonic acid (4-chloro-benzyl)-[4-(3-phenoxy-piperidine-1-carbonyl)-phenyl]-amide]"
49.3%,79%,"Cc1nc(C)c(S(=O)(=O)N(Cc2ccccc2)c2ccc(C(=O)N3CCN(c4ccccc4)CC3)cc2)s1 [Example 48, 2,4-Dimethyl-thiazole-5-sulfonic acid benzyl-[4-(4-phenyl-piperazine-1-carbonyl)-phenyl]-amide]"
50.1%,81%,"O=C(c1ccc(N(Cc2ccccc2)S(=O)(=O)c2ccccc2)cc1)N1CCc2ccccc2C1 [Example 55, N-Benzyl-N-[4-(3,4-dihydro-1H-isoquinoline-2-carbonyl)-phenyl]-benzenesulfonamide]"
